Reference: PMC12454493, “Insight on novel sulfamoylphenyl pyrazole derivatives as anticancer carbonic anhydrase inhibitors” (Molecular Diversity, 2024)
Several values for one entry are separate records, joined by “and”; a condition that tells them apart may be missing. Equal values may be shown once.

Key:
hCA IX = hCA IX (Homo sapiens, UniProt Q16790); assay: CA inhibitory activity, spectrophotometric p-NPA assay; type: biochemical; conditions: p-NPA substrate, pH 7.5, 25 °C, triplicate; read-out: IC50 (µM) ± SD hCA IX
SK-MEL-28 = assay: NCI-60 one-dose SRB screen (Melanoma); type: cell-based; conditions: Homo sapiens, single dose 10 µM, 48 h, read-out: Growth inhibition percent (GI %)
UACC-62 = assay: NCI-60 one-dose SRB screen (Melanoma); type: cell-based; conditions: Homo sapiens, single dose 10 µM, 48 h, read-out: Growth inhibition percent (GI %)
LOX IMVI = assay: NCI-60 one-dose SRB screen (Melanoma); type: cell-based; conditions: Homo sapiens, single dose 10 µM, 48 h, read-out: Growth inhibition percent (GI %)
MDA-MB-435 = assay: NCI-60 one-dose SRB screen (Melanoma); type: cell-based; conditions: Homo sapiens, single dose 10 µM, 48 h, read-out: Growth inhibition percent (GI %)
SK-MEL-2 = assay: NCI-60 one-dose SRB screen (Melanoma); type: cell-based; conditions: Homo sapiens, single dose 10 µM, 48 h, read-out: Growth inhibition percent (GI %)
MALME-3M = assay: NCI-60 one-dose SRB screen (Melanoma); type: cell-based; conditions: Homo sapiens, single dose 10 µM, 48 h, read-out: Growth inhibition percent (GI %)
M14 = assay: NCI-60 one-dose SRB screen (Melanoma); type: cell-based; conditions: Homo sapiens, single dose 10 µM, 48 h, read-out: Growth inhibition percent (GI %)
SK-MEL-5 = assay: NCI-60 one-dose SRB screen (Melanoma); type: cell-based; conditions: Homo sapiens, single dose 10 µM, 48 h, read-out: Growth inhibition percent (GI %)
UACC-257 = assay: NCI-60 one-dose SRB screen (Melanoma); type: cell-based; conditions: Homo sapiens, single dose 10 µM, 48 h, read-out: Growth inhibition percent (GI %)
TK-10 = assay: NCI-60 one-dose SRB screen (Renal Cancer); type: cell-based; conditions: Homo sapiens, single dose 10 µM, 48 h, read-out: Growth inhibition percent (GI %)
A498 = assay: NCI-60 one-dose SRB screen (Renal Cancer); type: cell-based; conditions: Homo sapiens, single dose 10 µM, 48 h, read-out: Growth inhibition percent (GI %)
RXF 393 = assay: NCI-60 one-dose SRB screen (Renal Cancer); type: cell-based; conditions: Homo sapiens, single dose 10 µM, 48 h, read-out: Growth inhibition percent (GI %)
CAKI-1 = assay: NCI-60 one-dose SRB screen (Renal Cancer); type: cell-based; conditions: Homo sapiens, single dose 10 µM, 48 h, read-out: Growth inhibition percent (GI %)
786-0 = assay: NCI-60 one-dose SRB screen (Renal Cancer); type: cell-based; conditions: Homo sapiens, single dose 10 µM, 48 h, read-out: Growth inhibition percent (GI %)
ACHN = assay: NCI-60 one-dose SRB screen (Renal Cancer); type: cell-based; conditions: Homo sapiens, single dose 10 µM, 48 h, read-out: Growth inhibition percent (GI %)
SN12C = assay: NCI-60 one-dose SRB screen (Renal Cancer); type: cell-based; conditions: Homo sapiens, single dose 10 µM, 48 h, read-out: Growth inhibition percent (GI %)
UO-31 = assay: NCI-60 one-dose SRB screen (Renal Cancer); type: cell-based; conditions: Homo sapiens, single dose 10 µM, 48 h, read-out: Growth inhibition percent (GI %)
EKVX = assay: NCI-60 one-dose SRB screen (Non-Small Cell Lung Cancer); type: cell-based; conditions: Homo sapiens, single dose 10 µM, 48 h, read-out: Growth inhibition percent (GI %)
HOP-62 = assay: as above; type: cell-based; conditions: Homo sapiens, single dose 10 µM, 48 h, read-out: Growth inhibition percent (GI %)
NCI-H322M = assay: as above; type: cell-based; conditions: Homo sapiens, single dose 10 µM, 48 h, read-out: Growth inhibition percent (GI %)
A549/ATCC = assay: as above; type: cell-based; conditions: Homo sapiens, single dose 10 µM, 48 h, read-out: Growth inhibition percent (GI %)
NCI-H226 = assay: as above; type: cell-based; conditions: Homo sapiens, single dose 10 µM, 48 h, read-out: Growth inhibition percent (GI %)
HOP-92 = assay: as above; type: cell-based; conditions: Homo sapiens, single dose 10 µM, 48 h, read-out: Growth inhibition percent (GI %)
NCI-H522 = assay: as above; type: cell-based; conditions: Homo sapiens, single dose 10 µM, 48 h, read-out: Growth inhibition percent (GI %)
NCI-H23 = assay: as above; type: cell-based; conditions: Homo sapiens, single dose 10 µM, 48 h, read-out: Growth inhibition percent (GI %)
NCI-H460 = assay: as above; type: cell-based; conditions: Homo sapiens, single dose 10 µM, 48 h, read-out: Growth inhibition percent (GI %)
T-47D = assay: NCI-60 one-dose SRB screen (Breast Cancer); type: cell-based; conditions: Homo sapiens, T47D, single dose 10 µM, 48 h, read-out: Growth inhibition percent (GI %)
MDA-MB-231/ATCC = assay: NCI-60 one-dose SRB screen (Breast Cancer); type: cell-based; conditions: Homo sapiens, single dose 10 µM, 48 h, read-out: Growth inhibition percent (GI %)
HS 578T = assay: NCI-60 one-dose SRB screen (Breast Cancer); type: cell-based; conditions: Homo sapiens, single dose 10 µM, 48 h, read-out: Growth inhibition percent (GI %)
BT-549 = assay: NCI-60 one-dose SRB screen (Breast Cancer); type: cell-based; conditions: Homo sapiens, single dose 10 µM, 48 h, read-out: Growth inhibition percent (GI %)
MDA-MB-468 = assay: NCI-60 one-dose SRB screen (Breast Cancer); type: cell-based; conditions: Homo sapiens, single dose 10 µM, 48 h, read-out: Growth inhibition percent (GI %)
MCF-7 = assay: NCI-60 one-dose SRB screen (Breast Cancer); type: cell-based; conditions: Homo sapiens, MCF7, single dose 10 µM, 48 h, read-out: Growth inhibition percent (GI %)
CCRF-CEM = assay: NCI-60 one-dose SRB screen (Leukemia); type: cell-based; conditions: Homo sapiens, single dose 10 µM, 48 h, read-out: Growth inhibition percent (GI %)
SNB-19 = assay: NCI-60 one-dose SRB screen (CNS Cancer); type: cell-based; conditions: Homo sapiens, single dose 10 µM, 48 h, read-out: Growth inhibition percent (GI %)
SF-539 = assay: NCI-60 one-dose SRB screen (CNS Cancer); type: cell-based; conditions: Homo sapiens, single dose 10 µM, 48 h, read-out: Growth inhibition percent (GI %)
U251 = assay: NCI-60 one-dose SRB screen (CNS Cancer); type: cell-based; conditions: Homo sapiens, U-251, single dose 10 µM, 48 h, read-out: Growth inhibition percent (GI %)
SF-295 = assay: NCI-60 one-dose SRB screen (CNS Cancer); type: cell-based; conditions: Homo sapiens, single dose 10 µM, 48 h, read-out: Growth inhibition percent (GI %)
SNB-75 = assay: NCI-60 one-dose SRB screen (CNS Cancer); type: cell-based; conditions: Homo sapiens, single dose 10 µM, 48 h, read-out: Growth inhibition percent (GI %)
SF-268 = assay: NCI-60 one-dose SRB screen (CNS Cancer); type: cell-based; conditions: Homo sapiens, single dose 10 µM, 48 h, read-out: Growth inhibition percent (GI %)
COLO 205 = assay: NCI-60 one-dose SRB screen (Colon Cancer); type: cell-based; conditions: Homo sapiens, single dose 10 µM, 48 h, read-out: Growth inhibition percent (GI %)
HCT-116 = assay: NCI-60 one-dose SRB screen (Colon Cancer); type: cell-based; conditions: Homo sapiens, single dose 10 µM, 48 h, read-out: Growth inhibition percent (GI %)
SW-620 = assay: NCI-60 one-dose SRB screen (Colon Cancer); type: cell-based; conditions: Homo sapiens, single dose 10 µM, 48 h, read-out: Growth inhibition percent (GI %)
KM12 = assay: NCI-60 one-dose SRB screen (Colon Cancer); type: cell-based; conditions: Homo sapiens, single dose 10 µM, 48 h, read-out: Growth inhibition percent (GI %)
HCC-2998 = assay: NCI-60 one-dose SRB screen (Colon Cancer); type: cell-based; conditions: Homo sapiens, single dose 10 µM, 48 h, read-out: Growth inhibition percent (GI %)
HCT-15 = assay: NCI-60 one-dose SRB screen (Colon Cancer); type: cell-based; conditions: Homo sapiens, single dose 10 µM, 48 h, read-out: Growth inhibition percent (GI %)
HT29 = assay: NCI-60 one-dose SRB screen (Colon Cancer); type: cell-based; conditions: Homo sapiens, HT-29, single dose 10 µM, 48 h, read-out: Growth inhibition percent (GI %)

Cc1ccc(-c2nn(-c3ccc(S(N)(=O)=O)cc3)cc2C(=O)NNC(N)=S)cc1 [Compound 9b, 2-[1-(4-Sulfamoylphenyl)-3-(p-tolyl)-1H-pyrazole-4-carbonyl] hydrazine-1-carbothioamide]
7.05%: inhibition at 10 µM (CAKI-1)
19.6%: inhibition at 10 µM (CCRF-CEM)
5.9%: inhibition at 10 µM (UACC-62)
6.3%: inhibition at 10 µM (SNB-75)
< 5%: inhibition at 10 µM (SK-MEL-28) | inhibition at 10 µM (LOX IMVI) | inhibition at 10 µM (MDA-MB-435) | inhibition at 10 µM (SK-MEL-2) | inhibition at 10 µM (MALME-3M) | inhibition at 10 µM (M14) | inhibition at 10 µM (SK-MEL-5) | inhibition at 10 µM (UACC-257) | inhibition at 10 µM (TK-10) | inhibition at 10 µM (A498) | inhibition at 10 µM (RXF 393) | inhibition at 10 µM (786-0) | inhibition at 10 µM (ACHN) | inhibition at 10 µM (SN12C) | inhibition at 10 µM (UO-31) | inhibition at 10 µM (EKVX) | inhibition at 10 µM (HOP-62) | inhibition at 10 µM (NCI-H322M) | inhibition at 10 µM (A549/ATCC) | inhibition at 10 µM (NCI-H226) | inhibition at 10 µM (HOP-92) | inhibition at 10 µM (NCI-H522) | inhibition at 10 µM (NCI-H23) | inhibition at 10 µM (NCI-H460) | inhibition at 10 µM (T-47D) | inhibition at 10 µM (MDA-MB-231/ATCC) | inhibition at 10 µM (HS 578T) | inhibition at 10 µM (BT-549) | inhibition at 10 µM (MDA-MB-468) | inhibition at 10 µM (MCF-7) | inhibition at 10 µM (SNB-19) | inhibition at 10 µM (U251) | inhibition at 10 µM (SF-295) | inhibition at 10 µM (SF-268) | inhibition at 10 µM (COLO 205) | inhibition at 10 µM (HCT-116) | inhibition at 10 µM (SW-620) | inhibition at 10 µM (KM12) | inhibition at 10 µM (HCC-2998) | inhibition at 10 µM (HCT-15) | inhibition at 10 µM (HT29)
5.95%: inhibition at 10 µM (SF-539)
0.33 µM and 0.339 µM: IC50 (hCA IX)
